Patent US20240285808A1, “MOLECULAR PROBES FOR IN VIVO DETECTION OF ALDEHYDES” (The General Hospital Corporation, priority 2021, published 2024)

Legend:
[1] = Elimination and retention of gadolinium in normal mice; format: in vivo, mouse; details: for route of elimination (dynamic whole-body MRI): 100 μmol/kg i.v.; for Gadolinium content, Sum, % ID per Organ / Gadolinium content, Bone, % ID per Gram / Gadolinium content, Bone, % ID per Organ / Gadolinium content, Brain, % ID per Gram / Gadolinium content, Brain, % ID per Organ / Gadolinium content, Heart, % ID per Gram / Gadolinium content, Heart, % ID per Organ / Gadolinium content, Kidneys, % ID per Gram / Gadolinium content, Kidneys, % ID per Organ / Gadolinium content, Liver, % ID per Gram / Gadolinium content, Liver, % ID per Organ / Gadolinium content, Lung, % ID per Gram / Gadolinium content, Lung, % ID per Organ / Gadolinium content, Muscle, % ID per Gram / Gadolinium content, Muscle, % ID per Organ / Gadolinium content, Serum, % ID per Gram / Gadolinium content, Serum, % ID per Organ / Gadolinium content, Spleen, % ID per Gram / Gadolinium content, Spleen, % ID per Organ / Gadolinium content, Stomach, % ID per Gram / Gadolinium content, Stomach, % ID per Organ: 24 h after injection, 100 μmol/kg; for Gadolinium content, Bone, % ID per Gram / Gadolinium content, Bone, % ID per Organ / Gadolinium content, Brain, % ID per Gram / Gadolinium content, Brain, % ID per Organ / Gadolinium content, Heart, % ID per Gram / Gadolinium content, Heart, % ID per Organ / Gadolinium content, Kidneys, % ID per Gram / Gadolinium content, Kidneys, % ID per Organ / Gadolinium content, Liver, % ID per Gram / Gadolinium content, Liver, % ID per Organ / Gadolinium content, Lung, % ID per Gram / Gadolinium content, Lung, % ID per Organ / Gadolinium content, Muscle, % ID per Gram / Gadolinium content, Muscle, % ID per Organ / Gadolinium content, Serum, % ID per Gram / Gadolinium content, Serum, % ID per Organ / Gadolinium content, Spleen, % ID per Gram / Gadolinium content, Spleen, % ID per Organ / Gadolinium content, Stomach, % ID per Gram / Gadolinium content, Stomach, % ID per Organ: n = 4
Method: FIG. 55. […] The liver enhances slightly with first-blood pass but the signal rapidly returns to baseline after 20 min.
At 24 h post-injection (p.i.), >99% of the injected dose of gadolinium was eliminated from the body (Table B).

[2] = Stability of compounds in human plasma; format: in vitro ADME; details: 37° C., 2 or 3 hours
Method: Stability of Compounds in Human Plasma:
A 16 μL aliquot of the Gd or Mn complex (1.0 mM) was added to 500 μL of human plasma (Lampire Biological laboratories). The solution was then incubated for 2 or 3 hours at 37° C. Aliquots (50 μL) were removed at 1, 2 or 3 hours. Proteins were precipitated by the addition of 150 μL of acetonitrile and removed following centrifugation. The supernatant was then analyzed using HPLC-ICP-MS. No unchelated gadolinium was observed nor the appearance of any new Gd/Mn-containing species.

[3] = Affinity measurements of Gd^3+ complex with butyraldehyde (HPLC-ICP-MS); format: physicochemical
Method: FIG. 43A. […] FIG. 43B. Affinity measurements of Gd^3+ complex with butyraldehyde. Concentration-dependent binding of the probes to butyraldehyde as determined by HPLC-ICP-MS (pH 7.4 in PBS, 12 h).

BSA-ALD [4] = target: T1, BSA-ALD (Bos taurus, UniProt P02769); assay: Binding yield measurements of Gd^3+ complex with BSA^Ald (ultrafiltration, ICP-MS); parameters: species or system bovine; details: pH 7.4, PBS, 37° C., 12 h, ultrafiltration 5,000 Da cut-off
T1 construct: made in house; host or cells: no expression host: BSA oxidised chemically with sodium ascorbate, ferric chloride and H2O2, then desalted on PD-10
Method: FIG. 48. […] Binding concentration of the probes to BSA^Ald (pH 7.4, PBS, 37° C., 12 h) as determined by ICP-MS following an ultrafiltration (5,000 Da cut-off) to separate the protein-bound probe from the unbound probe. Slope gives the binding yield.
Alternatively, preparation of BSA^Ald and binding of Gd^3+ probe to protein was carried out according to modified procedures. To a solution of bovine serum albumin (BSA) (100 mg) dissolved in phosphate buffered saline (4 mL, pH 7.4, 0.25 mM) was added sodium ascorbate (20 mg), ferric chloride (120 μL, 10 mM) and 20 μL H2O2 (30% w). The reaction was stirred at 37° C. for 24 h, and sodium ascorbate (20 mg) was added repeatedly every 8 h. After 24 h, the protein was purified using PD-10 Sephadex G25 desalting columns (GE Healthcare), eluted with PBS. Protein concentration was assessed using the ‘Micro BCA Protein Assay Kit’ (Thermo Scientific, 23235). Protein carbonyl concentration was determined by ‘Protein Carbonyl Content Assay Kit’ (Sigma-Aldrich, MAK094-1KT). […] The protein solutions were kept at a concentration of 20 mg/mL for further use.

BSA-ALD [5] = target: T1, BSA-ALD; assay: On/off rate with oxidized BSA-ALD; format: binding, bovine; details: for fold higher initial on rate / reactivity with BSA-Ald compared to Gd-CHyd: BSA-Ald 10 mg/mL in PBS
Method: On Off Rate with Oxidized BSA-ALD:
BSA-ALD (10 mg/mL) was incubated with 200 μM corresponding Gd or Mn complex at 37° C. in pH 7.4 PBS), with a total volume of 300 μL. The dynamic longitudinal (T1) relaxation time were measured using a Bruker mq60 Minispec at 1.41 T and 37° C. After 24 hours, protein-bound and protein-free solutions were separated by ultrafiltration. Then 200 μL PBS was added to the residue to dissolve the protein bound species. The change of longitudinal (T1) relaxation time was then measured in Bruker mq60 Minispec at 1.41 T and 37° C.

[6] = Reaction rates with butyraldehyde measured by HPLC-ICP-MS (Method B); format: physicochemical; details: Method b: butyraldehyde 100 μM, probe 25 μM, pH 7.40
Method: Method B: Reaction Rates of Compounds with Butyraldehyde Measured by HPLC-ICP-MS
The reactions were conducted in pH 7.40 phosphate-buffered with butyraldehyde concentration of 100 μM and hydrazine probes at 25 μM. Concentrations of unreacted starting material and condensation products were determined at 10 min time intervals over 2 hours based on their relative integrations. The values were fit to a standard first order rate constant linear equation and the rate constant was extracted from the slope.
Reaction with Butyraldehyde Monitored by HPLC-ICP-MS
Reactions were conducted in pH 7.4 phosphate-buffered saline with butyraldehyde concentration of 100 μM and hydrazine probes at 25 μM. Concentrations of unreacted starting material and condensation products were determined based on their relative integrations at 12 min time intervals over 2 hours.

PDAC6 xenograft tumor = assay: MR imaging of PDAC6 tumor xenograft model; format: in vivo, mouse; details: 60 min post injection
Method: Male NU(NCr)-Foxn1nu nude mice at 6-8 weeks of age were provided by Charles River Labs, Wilmington, MA. A total of 1×10^7 patient derived metastatic pancreatic cancer cells (PDAC6) were injected into the subcutaneous space of the right lower back of the mice (n=4 per group). Mice were imaged with Mn-17 (100 μmol/kg) 4 weeks after implanting the tumor for pretreatment imaging, and another group of mice were imaged 3-days post treatment with FOLFIRINOX (Folinate 50 mg/kg, Oxaliplaton 2.5 mg/kg, Irinotecan 25 mg/kg, Fluorouracil 25 mg/kg).
For PDAC6 xenograft tumor imaging, images were acquired with following sequences and parameters: 3D T1 weighted FLASH (TR/TE/FA=14 ms/[…]/30°, 0.4 mm isotropic spatial resolution, field of view (FOV) 35 mm×35 mm, two average, acquisition time=4.3 min) images were acquired prior to and dynamically post injection of contrast agent; 3D RARE (RARE, TR/TE/FA=[…]/57 ms/180°, 0.3 mm isotropic spatial resolution, field of view (FOV) 35 mm×60 mm, one average, acquisition time=8.1 min) image was also acquired.
For tumor imaging analysis, RARE image and first FLASH image post-contrast were used to define volumetric region of interest (ROIs) in the tumor that excluded necrosis region. ΔCNR was calculated by eq 22.

[7] = 3-days post treatment (FOLFIRINOX)

T1 sequence (P02769 25-607): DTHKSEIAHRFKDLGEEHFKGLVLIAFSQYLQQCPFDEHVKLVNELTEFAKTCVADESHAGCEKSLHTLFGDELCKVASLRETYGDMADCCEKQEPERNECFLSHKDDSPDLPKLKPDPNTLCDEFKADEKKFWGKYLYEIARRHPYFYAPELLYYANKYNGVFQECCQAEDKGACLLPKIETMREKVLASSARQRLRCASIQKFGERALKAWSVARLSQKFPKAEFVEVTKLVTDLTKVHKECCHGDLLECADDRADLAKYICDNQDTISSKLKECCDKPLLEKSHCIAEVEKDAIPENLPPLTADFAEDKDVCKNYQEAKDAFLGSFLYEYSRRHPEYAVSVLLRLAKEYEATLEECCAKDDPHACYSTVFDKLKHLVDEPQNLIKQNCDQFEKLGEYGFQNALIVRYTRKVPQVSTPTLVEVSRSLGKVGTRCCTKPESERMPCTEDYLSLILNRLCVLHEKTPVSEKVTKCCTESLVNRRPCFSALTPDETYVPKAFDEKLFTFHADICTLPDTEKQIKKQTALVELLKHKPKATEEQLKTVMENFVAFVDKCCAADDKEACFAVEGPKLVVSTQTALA

NN1CCN(C(=O)CCC(C(=O)[O-])N2CCN(CC(=O)[O-])CCN(CC(=O)[O-])CCN(C(CCC(=O)N3CCN(N)CC3)C(=O)[O-])CC2)CC1.[Gd+3] (stereo not drawn) [Gd-9, cis-1,4-Gd-(CHyd)2]
route of elimination (dynamic whole-body MRI) [1]: eliminated exclusively via the kidneys into the bladder | Gadolinium content, Sum, % ID per Organ [1]: 0.625 % ID per Organ | Gadolinium content, Bone, % ID per Gram [1]: 0.0144 ± 0.0125 % ID per Gram | Gadolinium content, Bone, % ID per Organ [1]: 0.0455 ± 0.0174 % ID per Organ | Gadolinium content, Brain, % ID per Gram [1]: 0.00336 ± 0.00277 % ID per Gram | Gadolinium content, Brain, % ID per Organ [1]: 0.0013 ± 0.00125 % ID per Organ | Gadolinium content, Heart, % ID per Gram [1]: 0.0788 ± 0.0151 % ID per Gram | Gadolinium content, Heart, % ID per Organ [1]: 0.00708 ± 0.000802 % ID per Organ | Gadolinium content, Kidneys, % ID per Gram [1]: 1.33 ± 0.152 % ID per Gram | Gadolinium content, Kidneys, % ID per Organ [1]: 0.377 ± 0.0103 % ID per Organ | Gadolinium content, Liver, % ID per Gram [1]: 0.0686 ± 0.0102 % ID per Gram | Gadolinium content, Liver, % ID per Organ [1]: 0.0341 ± 0.0250 % ID per Organ | Gadolinium content, Lung, % ID per Gram [1]: 0.166 ± 0.100 % ID per Gram | Gadolinium content, Lung, % ID per Organ [1]: 0.0289 ± 0.00394 % ID per Organ | Gadolinium content, Muscle, % ID per Gram [1]: 0.0132 ± 0.00294 % ID per Gram | Gadolinium content, Muscle, % ID per Organ [1]: 0.105 ± 0.0225 % ID per Organ | Gadolinium content, Serum, % ID per Gram [1]: 0.00138 ± 0.000861 % ID per Gram | Gadolinium content, Serum, % ID per Organ [1]: 0.00376 ± 0.00113 % ID per Organ | Gadolinium content, Spleen, % ID per Gram [1]: 0.140 ± 0.0558 % ID per Gram | Gadolinium content, Spleen, % ID per Organ [1]: 0.00618 ± 0.000767 % ID per Organ | Gadolinium content, Stomach, % ID per Gram [1]: 0.114 ± 0.0288 % ID per Gram | Gadolinium content, Stomach, % ID per Organ [1]: 0.0157 ± 0.00274 % ID per Organ | stability in human plasma (HPLC-ICP-MS) [2]: lack of de-chelation or formation of Gd-containing metabolites | fold improved affinity over Gd-11 and Gd-CHyd [3]: 2 fold | equilibrium binding to BSA^Ald (binding yield) (BSA-ALD [4]): 39.2% | faster on-rate than monobinder Gd-CHyd (BSA-ALD [5]): 600% | fold slower off-rate than Gd-CHyd (BSA-ALD [5]): 1.5 fold | slower off-rate than monobinder Gd-CHyd (BSA-ALD [5]): 50% | fold higher initial on rate / reactivity with BSA-Ald compared to Gd-CHyd (BSA-ALD [5]): 6 fold | k (second order rate constant) [6]: 3.6 M⁻¹ s⁻¹

NN1CCN(C(=O)CCC(C(=O)[O-])N2CCN(CC(=O)[O-])CCN(C(CCC(=O)N3CCN(N)CC3)C(=O)[O-])CCN(CC(=O)[O-])CC2)CC1.[Gd+3] (stereo not drawn) [Gd-10, trans-1,7-Gd-(CHyd)2]
route of elimination (dynamic whole-body MRI) [1]: eliminated exclusively via the kidneys into the bladder | Gadolinium content, Sum, % ID per Organ [1]: 0.584 % ID per Organ | Gadolinium content, Bone, % ID per Gram [1]: 0.0180 ± 0.00486 % ID per Gram | Gadolinium content, Bone, % ID per Organ [1]: 0.0469 ± 0.0126 % ID per Organ | Gadolinium content, Brain, % ID per Gram [1]: 0.00206 ± 0.000288 % ID per Gram | Gadolinium content, Brain, % ID per Organ [1]: 0.000776 ± 0.000169 % ID per Organ | Gadolinium content, Heart, % ID per Gram [1]: 0.0219 ± 0.00212 % ID per Gram | Gadolinium content, Heart, % ID per Organ [1]: 0.00203 ± 0.000132 % ID per Organ | Gadolinium content, Kidneys, % ID per Gram [1]: 1.45 ± 0.262 % ID per Gram | Gadolinium content, Kidneys, % ID per Organ [1]: 0.365 ± 0.0315 % ID per Organ | Gadolinium content, Liver, % ID per Gram [1]: 0.105 ± 0.00715 % ID per Gram | Gadolinium content, Liver, % ID per Organ [1]: 0.0572 ± 0.0426 % ID per Organ | Gadolinium content, Lung, % ID per Gram [1]: 0.157 ± 0.00422 % ID per Gram | Gadolinium content, Lung, % ID per Organ [1]: 0.0197 ± 0.00107 % ID per Organ | Gadolinium content, Muscle, % ID per Gram [1]: 0.00886 ± 0.000914 % ID per Gram | Gadolinium content, Muscle, % ID per Organ [1]: 0.0709 ± 0.0073 % ID per Organ | Gadolinium content, Serum, % ID per Gram [1]: 0.00169 ± 0.000259 % ID per Gram | Gadolinium content, Serum, % ID per Organ [1]: 0.00398 ± 0.000175 % ID per Organ | Gadolinium content, Spleen, % ID per Gram [1]: 0.165 ± 0.0817 % ID per Gram | Gadolinium content, Spleen, % ID per Organ [1]: 0.0086 ± 0.00085 % ID per Organ | Gadolinium content, Stomach, % ID per Gram [1]: 0.0414 ± 0.02775 % ID per Gram | Gadolinium content, Stomach, % ID per Organ [1]: 0.00869 ± 0.00207 % ID per Organ | stability in human plasma (HPLC-ICP-MS) [2]: lack of de-chelation or formation of Gd-containing metabolites | fold improved affinity over Gd-11 and Gd-CHyd [3]: 2 fold | equilibrium binding to BSA^Ald (binding yield) (BSA-ALD [4]): 28.1% | fold higher initial on rate / reactivity with BSA-Ald compared to Gd-CHyd (BSA-ALD [5]): 3 fold | k (second order rate constant) [6]: 3.5 M⁻¹ s⁻¹

NNCC(=O)NCCCN1CCN(CC(=O)[O-])Cc2cccc(n2)CN(CC(=O)[O-])CC1.[Mn+2] [Mn-17]
ΔCNR of PDAC6 xenograft tumor (PDAC6 xenograft tumor; [7]): 6.4 ± 1.2 | ΔCNR of PDAC6 xenograft tumor (PDAC6 xenograft tumor; Pre-treatment): 4.6 ± 1.0

CN(C)C(CCC(=O)NCCCN1CCN(CC(=O)[O-])Cc2cccc(n2)CN(CC(=O)[O-])CC1)C(=O)O.[Mn+2] (stereo not shown) [Mn-18]
ΔCNR of PDAC6 xenograft tumor (PDAC6 xenograft tumor; [7]): 0.4 ± 0.3 | ΔCNR of PDAC6 xenograft tumor (PDAC6 xenograft tumor; Pre-treatment): 0.4 ± 0.3
